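Dose response: 5 concentrations. Exposure: 48 h. Format: 96-well plates. Endpoint: linear interpolation; highest concentration if not reached. TGI denotes the concentration required for complete inhibition of growth.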
Tests used:
Assay in all cases: NCI tumour cell line growth inhibition, 48 h
SNB-75 CNS = tested on: SNB-75 CNS
786-0 renal = tested on: 786-0 renal
OVCAR-8 ovarian = tested on: OVCAR-8 ovarian
A498 renal = tested on: A498 renal
SK-MEL-28 melanoma = tested on: SK-MEL-28 melanoma
RPMI-8226 leukemia = tested on: RPMI-8226 leukemia
CAKI-1 renal = tested on: CAKI-1 renal
SW-620 colon = tested on: SW-620 colon
DLD-1 colon = tested on: DLD-1 colon
NCI-H522 lung = tested on: NCI-H522 lung
COLO 205 colon = tested on: COLO 205 colon
OVCAR-5 ovarian = tested on: OVCAR-5 ovarian
SF-268 CNS = tested on: SF-268 CNS
HCC-2998 colon = tested on: HCC-2998 colon
UO-31 renal = tested on: UO-31 renal
HCT-15 colon = tested on: HCT-15 colon
UACC-62 melanoma = tested on: UACC-62 melanoma
HT29 colon = tested on: HT29 colon
DMS 273 small cell lung = tested on: DMS 273 small cell lung
SNB-78 CNS = tested on: SNB-78 CNS
U251 CNS = tested on: U251 CNS
SF-295 CNS = tested on: SF-295 CNS
DMS 114 small cell lung = tested on: DMS 114 small cell lung
XF 498 CNS = tested on: XF 498 CNS
OVCAR-3 ovarian = tested on: OVCAR-3 ovarian
MOLT-4 leukemia = tested on: MOLT-4 leukemia
UACC-257 melanoma = tested on: UACC-257 melanoma
M14 melanoma = tested on: M14 melanoma
LXFL 529 NSCLC = tested on: LXFL 529 NSCLC
ACHN renal = tested on: ACHN renal
MALME-3M melanoma = tested on: MALME-3M melanoma
CCRF-CEM leukemia = tested on: CCRF-CEM leukemia
SN12C renal = tested on: SN12C renal
HL-60(TB) leukemia = tested on: HL-60(TB) leukemia
RXF 393 renal = tested on: RXF 393 renal
TK-10 renal = tested on: TK-10 renal
M19-MEL melanoma = tested on: M19-MEL melanoma
NCI-H226 lung = tested on: NCI-H226 lung
RXF-631 renal = tested on: RXF-631 renal
IGROV1 ovarian = tested on: IGROV1 ovarian
EKVX NSCLC = tested on: EKVX NSCLC
K-562 leukemia = tested on: K-562 leukemia
NCI-H23 lung = tested on: NCI-H23 lung
SK-OV-3 ovarian = tested on: SK-OV-3 ovarian
A549 NSCLC = tested on: A549 NSCLC
HOP-62 NSCLC = tested on: HOP-62 NSCLC
SNB-19 CNS = tested on: SNB-19 CNS
HOP-18 NSCLC = tested on: HOP-18 NSCLC
SK-MEL-2 melanoma = tested on: SK-MEL-2 melanoma
SF-539 CNS = tested on: SF-539 CNS
SK-MEL-5 melanoma = tested on: SK-MEL-5 melanoma
KM12 colon = tested on: KM12 colon
OVCAR-4 ovarian = tested on: OVCAR-4 ovarian
HOP-92 NSCLC = tested on: HOP-92 NSCLC
NCI-H460 lung = tested on: NCI-H460 lung
HCT-116 colon = tested on: HCT-116 colon
SR leukemia = tested on: SR leukemia
LOX IMVI melanoma = tested on: LOX IMVI melanoma
KM20L2 colon = tested on: KM20L2 colon
P388 leukemia = tested on: P388 leukemia
NCI/ADR-RES ovarian = tested on: NCI/ADR-RES ovarian
MCF7 breast = tested on: MCF7 breast
P388/ADR leukemia = tested on: P388/ADR leukemia
SN12K1 renal = tested on: SN12K1 renal

`Cc1ccc(N=Nc2ccc(N(CCC#N)CCC#N)cc2C)c(Br)c1` was tested, and the TGI (SNB-75 CNS) was > 100 µM, the TGI (786-0 renal) was 61.5 µM and the TGI (OVCAR-8 ovarian) was > 100 µM. The TGI (A498 renal) was > 100 µM, the TGI (SK-MEL-28 melanoma) was > 100 µM and the TGI (RPMI-8226 leukemia) was 35.8 µM. For the same compound, the TGI (CAKI-1 renal) was 24.6 µM, the TGI (SW-620 colon) was > 100 µM and the TGI (DLD-1 colon) was > 100 µM. The TGI (NCI-H522 lung) was > 100 µM, the TGI (COLO 205 colon) was > 100 µM and the TGI (OVCAR-5 ovarian) was > 100 µM. The TGI (SF-268 CNS) was > 100 µM, the TGI (HCC-2998 colon) was 59.4 µM and the TGI (UO-31 renal) was > 100 µM. For the same compound, the TGI (HCT-15 colon) was > 100 µM, the TGI (UACC-62 melanoma) was > 100 µM and the TGI (HT29 colon) was 27.4 µM. For the same compound, the TGI (DMS 273 small cell lung) was 41.4 µM, the TGI (SNB-78 CNS) was > 100 µM and the TGI (U251 CNS) was > 100 µM. The TGI (SF-295 CNS) was 93.1 µM, the TGI (DMS 114 small cell lung) was > 100 µM and the TGI (XF 498 CNS) was 40.6 µM. The TGI (OVCAR-3 ovarian) was > 100 µM, the TGI (MOLT-4 leukemia) was 45.1 µM and the TGI (UACC-257 melanoma) was > 100 µM. For the same compound, the TGI (M14 melanoma) was 92.3 µM, the TGI (LXFL 529 NSCLC) was > 100 µM and the TGI (ACHN renal) was > 100 µM. For the same compound, the TGI (MALME-3M melanoma) was > 100 µM, the TGI (CCRF-CEM leukemia) was > 100 µM and the TGI (SN12C renal) was > 100 µM. For the same compound, the TGI (HL-60(TB) leukemia) was 65.7 µM, the TGI (RXF 393 renal) was 46.1 µM and the TGI (TK-10 renal) was 66.3 µM. For the same compound, the TGI (M19-MEL melanoma) was > 100 µM, the TGI (NCI-H226 lung) was 61.5 µM and the TGI (RXF-631 renal) was 81.3 µM. The TGI (IGROV1 ovarian) was > 100 µM, the TGI (EKVX NSCLC) was > 100 µM and the TGI (K-562 leukemia) was > 100 µM. For the same compound, the TGI (NCI-H23 lung) was > 100 µM, the TGI (SK-OV-3 ovarian) was > 100 µM and the TGI (A549 NSCLC) was > 100 µM. For the same compound, the TGI (HOP-62 NSCLC) was 93 µM, the TGI (SNB-19 CNS) was > 100 µM and the TGI (HOP-18 NSCLC) was > 100 µM. The TGI (SK-MEL-2 melanoma) was > 100 µM, the TGI (SF-539 CNS) was > 100 µM and the TGI (SK-MEL-5 melanoma) was 56.5 µM. For the same compound, the TGI (KM12 colon) was 55.8 µM and the TGI (OVCAR-4 ovarian) was > 100 µM.

For `CCOc1ccc(NC(=O)C(=O)CC(=O)c2c[n+](=O)c3cc(C)c(C)cc3n2[O-])cc1`, the TGI (SNB-75 CNS) was > 100 µM, the TGI (786-0 renal) was > 100 µM and the TGI (HOP-92 NSCLC) was > 100 µM. The TGI (OVCAR-8 ovarian) was > 100 µM, the TGI (A498 renal) was > 100 µM and the TGI (SK-MEL-28 melanoma) was > 100 µM. For the same compound, the TGI (RPMI-8226 leukemia) was > 100 µM, the TGI (CAKI-1 renal) was > 100 µM and the TGI (SW-620 colon) was > 100 µM. For the same compound, the TGI (NCI-H522 lung) was > 100 µM, the TGI (COLO 205 colon) was > 100 µM and the TGI (NCI-H460 lung) was > 100 µM. The TGI (OVCAR-5 ovarian) was > 100 µM, the TGI (SF-268 CNS) was > 100 µM and the TGI (HCC-2998 colon) was > 100 µM. For the same compound, the TGI (UO-31 renal) was > 100 µM, the TGI (HCT-15 colon) was > 100 µM and the TGI (UACC-62 melanoma) was > 100 µM. The TGI (HT29 colon) was > 100 µM, the TGI (DMS 273 small cell lung) was > 100 µM and the TGI (SNB-78 CNS) was > 100 µM. For the same compound, the TGI (U251 CNS) was > 100 µM, the TGI (SF-295 CNS) was > 100 µM and the TGI (DMS 114 small cell lung) was > 100 µM. For the same compound, the TGI (XF 498 CNS) was > 100 µM, the TGI (OVCAR-3 ovarian) was > 100 µM and the TGI (MOLT-4 leukemia) was > 100 µM. For the same compound, the TGI (UACC-257 melanoma) was > 100 µM, the TGI (M14 melanoma) was > 100 µM and the TGI (LXFL 529 NSCLC) was > 100 µM. For the same compound, the TGI (ACHN renal) was > 100 µM, the TGI (MALME-3M melanoma) was > 100 µM and the TGI (CCRF-CEM leukemia) was > 100 µM. For the same compound, the TGI (SN12C renal) was > 100 µM, the TGI (HL-60(TB) leukemia) was > 100 µM and the TGI (HCT-116 colon) was > 100 µM. The TGI (RXF 393 renal) was > 100 µM, the TGI (TK-10 renal) was > 100 µM and the TGI (M19-MEL melanoma) was > 100 µM. For the same compound, the TGI (NCI-H226 lung) was > 100 µM, the TGI (RXF-631 renal) was > 100 µM and the TGI (IGROV1 ovarian) was > 100 µM. For the same compound, the TGI (SR leukemia) was > 100 µM, the TGI (EKVX NSCLC) was > 100 µM and the TGI (K-562 leukemia) was > 100 µM. For the same compound, the TGI (LOX IMVI melanoma) was > 100 µM, the TGI (NCI-H23 lung) was > 100 µM and the TGI (SK-OV-3 ovarian) was > 100 µM. For the same compound, the TGI (A549 NSCLC) was > 100 µM, the TGI (HOP-62 NSCLC) was > 100 µM and the TGI (SNB-19 CNS) was > 100 µM. The TGI (HOP-18 NSCLC) was > 100 µM, the TGI (SK-MEL-2 melanoma) was > 100 µM and the TGI (KM20L2 colon) was > 100 µM. For the same compound, the TGI (SF-539 CNS) was > 100 µM, the TGI (SK-MEL-5 melanoma) was > 100 µM and the TGI (KM12 colon) was > 100 µM. The TGI (OVCAR-4 ovarian) was > 100 µM.

For `CNC(=O)C(C)C1CCC2(C)C=CC(=O)C(C)=C2C1O` (stereo unspecified), the TGI (SNB-75 CNS) was > 100 µM, the TGI (HOP-92 NSCLC) was > 100 µM and the TGI (OVCAR-8 ovarian) was > 87.9 µM. The TGI (A498 renal) was > 100 µM, the TGI (SK-MEL-28 melanoma) was > 100 µM and the TGI (RPMI-8226 leukemia) was > 100 µM. For the same compound, the TGI (CAKI-1 renal) was 91.7 µM, the TGI (SW-620 colon) was > 100 µM and the TGI (DLD-1 colon) was > 100 µM. For the same compound, the TGI (NCI-H522 lung) was > 100 µM, the TGI (COLO 205 colon) was > 64.7 µM and the TGI (NCI-H460 lung) was > 100 µM. For the same compound, the TGI (OVCAR-5 ovarian) was > 100 µM, the TGI (SF-268 CNS) was > 100 µM and the TGI (P388 leukemia) was > 100 µM. The TGI (HCC-2998 colon) was > 100 µM, the TGI (UO-31 renal) was > 68.3 µM and the TGI (HCT-15 colon) was > 100 µM. The TGI (NCI/ADR-RES ovarian) was > 71.7 µM, the TGI (MCF7 breast) was > 100 µM and the TGI (UACC-62 melanoma) was > 100 µM. The TGI (HT29 colon) was > 100 µM, the TGI (DMS 273 small cell lung) was > 58.1 µM and the TGI (SNB-78 CNS) was > 100 µM. For the same compound, the TGI (U251 CNS) was > 64.9 µM, the TGI (SF-295 CNS) was > 70.8 µM and the TGI (DMS 114 small cell lung) was > 100 µM. For the same compound, the TGI (XF 498 CNS) was > 100 µM, the TGI (OVCAR-3 ovarian) was > 100 µM and the TGI (MOLT-4 leukemia) was > 100 µM. The TGI (UACC-257 melanoma) was > 100 µM, the TGI (CCRF-CEM leukemia) was > 100 µM and the TGI (SN12C renal) was > 100 µM. The TGI (HL-60(TB) leukemia) was > 100 µM, the TGI (HCT-116 colon) was > 100 µM and the TGI (RXF 393 renal) was > 100 µM. For the same compound, the TGI (P388/ADR leukemia) was > 100 µM, the TGI (M19-MEL melanoma) was > 100 µM and the TGI (NCI-H226 lung) was > 100 µM. For the same compound, the TGI (IGROV1 ovarian) was > 100 µM, the TGI (EKVX NSCLC) was > 100 µM and the TGI (K-562 leukemia) was > 100 µM. The TGI (LOX IMVI melanoma) was > 100 µM, the TGI (NCI-H23 lung) was > 100 µM and the TGI (SK-OV-3 ovarian) was > 100 µM. For the same compound, the TGI (SN12K1 renal) was > 100 µM, the TGI (A549 NSCLC) was > 90.2 µM and the TGI (HOP-62 NSCLC) was > 100 µM. For the same compound, the TGI (SNB-19 CNS) was > 100 µM, the TGI (SK-MEL-2 melanoma) was > 100 µM and the TGI (KM20L2 colon) was > 100 µM. For the same compound, the TGI (SF-539 CNS) was > 100 µM, the TGI (SK-MEL-5 melanoma) was > 60.1 µM and the TGI (KM12 colon) was > 100 µM. The TGI (OVCAR-4 ovarian) was > 100 µM.
